Results reported in patent US20230107926A1, “A METHOD FOR TREATING A BIOLOGICAL OBJECT” (OPTICEPT TECHNOLOGIES AB, priority 2020, published 2023).

Experiments:
[1] = system: Cuttings of Pelargonium interspecific: Calliope M Dark Red; assay: Comparative trial of vacuum impregnation (VI) on unrooted Pelargonium cuttings: storage, rooting, losses, acceptability; type: in vivo; details: for % Losses after storage: stored at 8° C, losses before sticking; for % Losses / % Rooted / %Not rooted / % Acceptable YPL: 21 days after sticking; for % Acceptable YPL: YPL = young plant
Source text: Comparative trials were made to investigate the effect of a method according to the present invention, that is a method preferably involving vacuum impregnation and which definitely is free from any PEF step, and a method involving a PEF step, either alone or together with an impregnation step, and of course also compared with untreated control(s). Cuttings of Pelargonium interspecific: Calliope M Dark Red was used as the testing material. When testing the method according to the second aspect of the present invention, the following vacuum impregnation parameters (protocol) were used: A pressure falling time of 10 minutes, a holding time of the obtained low pressure of 1 minute and then 15 minutes rising time when the pressure was increased again to atmospheric pressure. The minimum pressure was set at 220 mbar and trehalose 10% was used as the impregnation solution. For the PEF trial and step (not according to the present invention), the parameters used were the following: 500 V in continuous system, 250 µs pulse width and 50 PPV (pulses per volume), 0.3 KW. For the group of cuttings that was subjected only to vacuum impregnation, that is by a method according to the present invention, an additional rinsing step was also performed. Moreover, each group tested consisted of 80 unrooted cuttings, and not any repetitions were performed. When the pelargonium cuttings were received they were processed immediately. After the treatment, the groups were placed in perforated trays and kept inside slightly opened boxes. The boxes were stored 7 days at 8° C. After 7 days of storage the cuttings were evaluated and counted. The damaged (due to Botrytis), rotten or withered ones are removed. These are called losses before sticking. The rooting, losses and acceptability results were obtained 21 days after sticking. […] It should be noted that data for losses after storage were obtained after […] of storage.

[2] = system: Roses (variety: Athena); assay: Vacuum impregnation on roses, appearance during vase storage at room temperature; type: in vivo; details: fructose 2-15 wt%, VI without PEF, versus untreated control
Source text: Roses (variety: Athena) were purchased form a local distributor. The roses were transported from Kenya. The roses arrived at the test site 4 days after harvest.
The treatment according to the present invention was applied to the roses immediately after the arrival. The roses were placed vertically in an impregnation solution, making sure that the flower bud was not immersed in the impregnation solution, thus only the stem and leaves were immersed. The impregnation solution contained sugar (fructose at a concentration of 2-15 wt%). Vacuum was applied reaching a minimum pressure range of 60 - 300 mbar, and with a total treatment time of about 12 minutes.
To continue with the trial performed, after that the vacuum impregnation treatment was finished, the roses were taken out from the impregnation solution. They were then immersed in water, again excluding the flower buds, to wash the sugars from the surface and then placed in a cold room for 24 hours to recover. They were in this case not dried in any way.
After 24 hours the roses were moved to room temperature in order to evaluate the results at the end user conditions. They were stored in a vase, with only the lower part of the stems immersed in water, and the water was renewed every two days.
Roses were stored at room temperature for 13 days after the treatment (Right: roses treated according to the present invention, left: control roses, i.e. not treated).

OC[C@H]1O[C@H](O[C@H]2O[C@H](CO)[C@@H](O)[C@H](O)[C@H]2O)[C@H](O)[C@@H](O)[C@@H]1O [Trehalose 10%, trehalose]
% Losses after storage ([1]; No PEF, only VI (220 mbar)): 4%
% Losses ([1]; No PEF, only VI): 0%
% Rooted ([1]; No PEF, only VI): 88%
%Not rooted ([1]; No PEF, only VI): 8%
% Acceptable YPL ([1]; No PEF, only VI): 46%
% Losses after storage ([1]; VI + PEF (500 V, 250 µs, 50 PPV)): 0%
% Losses ([1]; VI + PEF): 10%
% Rooted ([1]; VI + PEF): 75%
%Not rooted ([1]; VI + PEF): 15%
% Acceptable YPL ([1]; VI + PEF): 35%

O=C(CO)[C@@H](O)[C@H](O)[C@H](O)CO [sugar, fructose]
general appearance of roses ([2]; stem and leaves immersed, 13 days at room temperature): clear improvement
browning and wilting of the flower buds ([2]; room temperature storage): delayed
freshness of the treated leaves ([2]; room temperature storage): preserve freshness better
